Data published in publication PMC8474110 (Journal of Medicinal Chemistry, 2021).

Experiments:
[1] = system: HREC stimulated with VEGF-A; assay: Tube formation assay (Matrigel) in HREC stimulated with VEGF-A; assay type: cell-based, human; conditions: 24 h; for effect on VEGF-A-stimulated tube formation in HREC: 5 μM
Protocol: To further explore effects on angiogenesis, tube formation assays with HREC were evaluated. Following seeding onto basement membranelike Matrigel and stimulation for 24 h with VEGF-A (80 ng/mL), HREC organized into networks of tubular structures mimicking capillary formation in neoangiogenesis (Figure 4A).
The tube formation assay was analyzed in vitro in BD Matrigel, following the manufacturer’s instructions (BD, Bedford). In brief, 96-well plates were coated with 50 μL of Matrigel and allowed to solidify at 37 °C for 2 h. HREC were seeded at 1.5 × 10^4 cells/well in 100 μL of medium with (±)-1, (+)-1, or (−)-1 in the presence or absence of VEGF-A (80 ng/mL), AC927, and PTZ. After […] of incubation, tubelike structures were photographed at 10× magnification using an inverted microscope (Leica DM IRB) equipped with a CCD camera. Tube formations were quantified with ImageJ software (NIH, Bethesda, MD).

[2] = system: human 92-1 uveal melanoma cells; assay: Wound healing assay (cell migration) in human 92-1 uveal melanoma cells; assay type: cell-based; conditions: for effect on 92-1 cell migration: 3 μM, over 48 h time courses; for IC50: Homo sapiens, read-out: IC50, inhibition of 92-1 cell migration (wound healing)
Protocol: Finally, tumor cell migration was explored with the wound healing assay (Figure 7). (±)-1, (+)-1, and (−)-1 inhibited 92-1 cell migration over 48 h time courses (Figure 7A). […] In particular, the derivative (−)-1 exerted the highest antimigratory effects compared to the (+)-enantiomer (>10-fold) or the racemic mixture (±)-1 (>40-fold; Figure 7B). These actions closely mirror those observed in HREC migration (Figure 3) and could similarly reflect signaling through σ receptors by the HP-mII molecular component of the prodrugs, without VPA/HDAC involvement. Indeed, their differential potencies in motility inhibition (Figure 7) are aligned with increasing binding affinities for σ2 receptors from (±)-1 to (+)-1 and (−)-1 (Table 2), thus implicating the stereochemical diversity of HP-mII enantiomeric components as an underlying molecular mechanism able to regulate cell migration.
(§1) HREC and 92-1 cells (2.5 × 10^5 cells/well) were seeded into 24 well plates and grown to confluency. Confluent cell monolayers were scratched with a p200 pipet tip to create 1 mm wide wounds. After washing (three times) with PBS to remove cell debris, wounded monolayers were incubated for 48 h (37 °C) in the complete medium in the presence of the indicated treatments. HREC were treated for 48 h in the presence of (±)-1, (+)-1, or (−)-1 with or without VEGF-A (80 ng/mL), AC927, and PTZ. 92-1 cells were treated for 48 h in the presence of (±)-1, (+)-1, or (−)-1. Wound closure was monitored by photographs at 40X using a phase-contrast microscope in each culture condition and at each time point (0, 24, and 48 h for HREC and 0, 6, 24, 30, and 48 h for 92-1 cells). The numbers of cells toward the wounds were counted using ImageJ software (ImageJ 1.50e, National Institutes of Health, NIH, Bethesda, MD) and were quantified by measuring the distance traveled over time by both cell fronts into the wound area.

[3] = system: HREC stimulated with VEGF-A; assay: Wound healing assay (cell motility) in HREC stimulated by VEGF-A; assay type: cell-based, human; conditions: 48 h; for effect of AC927 cotreatment on the compound's inhibition of VEGF-A-mediated HREC motility: 5 μM compound + 2 μM AC927, 80 ng/mL VEGF-A; for effect of PTZ cotreatment on the compound's inhibition of VEGF-A-mediated HREC motility: 5 μM compound + 2 μM PTZ
Protocol: Unregulated stimulation of endothelial cell motility by VEGF-A underlies pathological angiogenesis.[41] Therefore, the effects of (±)-1, (+)-1, and (−)-1 on HREC motility stimulated by VEGF-A (80 ng/mL) were evaluated with the wound healing assays (Figures 3 and S3–S5). VEGF-A promoted HREC migration compared to untreated controls, inducing complete wound closures at 24 h (Figures S3–S5). […] Cotreatments with both AC927 and PTZ reduced (±)-1 and (+)-1 abilities to inhibit VEGF-A-mediated wound healing (Figure 3A,B). […] The representative images of HREC treated with VEGF-A and three prodrug derivatives after the scratch wound are shown in the Supporting Information (Figures S2–S4A).
as §1

[4] = system: HREC stimulated with VEGF-A; assay: Crystal violet proliferation assay in HREC with or without VEGF-A; assay type: cell-based, human; conditions: 24 h; for effect of coincubation with AC927 on the compound's anti-VEGF-A activity on HREC proliferation: 5 μM compound + 2 μM AC927 (σ2 antagonist); for effect of coincubation with AC927 on the compound's anti-VEGF-A activity on HREC proliferation / effect of coincubation with PTZ on the compound's anti-VEGF-A activity on HREC proliferation / effect on VEGF-A-mediated HREC proliferation: 80 ng/mL VEGF-A; for effect of coincubation with PTZ on the compound's anti-VEGF-A activity on HREC proliferation: 5 μM compound + 2 μM PTZ (σ1 agonist); for effect on VEGF-A-mediated HREC proliferation / effect on HREC proliferation under basal conditions: 5 μM; for effect on HREC proliferation under basal conditions: no VEGF-A
Protocol: As expected, VEGF-A exerted a proangiogenic effect by increasing cell proliferation by about 45% (at 24 h) with respect to the untreated control (Figure 2).
Control cells received an equal volume of vehicle (DMSO). At the end of the treatment, each well was washed with phosphate-buffered saline (PBS). Following this, the cells were fixed (in 4% paraformaldehyde) and stained with crystal violet solution (0.5% in 20% methanol for HREC or 1% aqueous solution for 92-1 cells). Subsequently, the plate was washed with water and left to dry. Crystal violet staining was evaluated by measuring the absorbance at 570 nm or 590 nm, after crystal violet extraction with 10% acetic acid (at room temperature for 10 min), with a microplate reader with the plate reader (Synergy 2-BioTek). For quantification, each assay was carried out in triplicate.

[5] = Enzymatic stability (kinetics of enzymatic hydrolysis) in rat plasma; assay type: in vitro ADME; conditions: for half-life at 3.8 µM: plasma (80%), pH 7.4, read-out: t1/2, enzymatic stability (converted)
Protocol: Enzymatic stability studies in rat and human plasma were performed for both the racemate and its enantiomers (Table 1). […] Considering the high stability of (±)-1 and its enantiomers in simulated physiological fluids and human plasma, these compounds could reach the target site without undergoing esterase metabolism.
Human plasma was purchased from 3H Biomedical (Uppsala, Sweden, Europe). Plasma aliquots (4 mL) were diluted with 0.02 M PBS (pH 7.4) to obtain a final volume of 5 mL containing 80% plasma. Studies were performed at 37 ± 0.5 °C using a shaking bath. Each experiment was started by adding a 10^–4 M drug stock solution (200 μL) to the preheated plasma. Hundred microliters of the thermostated medium was taken at various times, treated with cold methanol (500 μL) to precipitate plasma proteins, and centrifugated (5 min at 5000g). The supernatant was analyzed by HPLC to quantify the amount of the residual intact compound.

Structure (SMILES)	effect on VEGF-A-stimulated tube formation in HREC ([1]; 80 ng/mL VEGF-A)	effect on 92-1 cell migration [2]	antimigratory effect compared to the (+)-enantiomer ([2]; 92-1 cells, 48 h) [fold]	antimigratory effect compared to the racemic mixture (±)-1 ([2]; 92-1 cells, 48 h) [fold]	IC50 ([2]; 48 h) [nM]	effect of AC927 cotreatment on the compound's inhibition of VEGF-A-mediated HREC motility [3]	effect on VEGF-A-mediated HREC migration (wound healing) ([3]; 5 μM, 80 ng/mL VEGF-A)	effect of coincubation with AC927 on the compound's anti-VEGF-A activity on HREC proliferation [4]	effect of coincubation with PTZ on the compound's anti-VEGF-A activity on HREC proliferation [4]	effect on VEGF-A-mediated HREC proliferation [4]	effect on HREC proliferation under basal conditions [4]	Kobs, enzymatic stability [5] [h^–1]	half-life at 3.8 µM [5] [min]	effect of PTZ cotreatment on the compound's inhibition of VEGF-A-mediated HREC motility ([3]; 80 ng/mL VEGF-A)	effect of AC927 on the compound's action on VEGF-A-stimulated tube formation ([1]; 5 μM compound + 2 μM AC927, 80 ng/mL VEGF-A)	effect of PTZ on the compound's action on VEGF-A-stimulated tube formation ([1]; 5 μM compound + 2 μM PTZ, 80 ng/mL VEGF-A)
CCCC(CCC)C(=O)O[C@@H](CCCN1CCC(O)(c2ccc(Cl)cc2)CC1)c1ccc(F)cc1 [(−)-1]	blocked	inhibited	> 10	> 40	90	prevented, in part	highest reduction	did not alter	did not alter	completely prevented	did not induce significant changes	2.15 ± 0.03	19.3 ± 0.6	–	–	–
CCCC(CCC)C(=O)O[C@H](CCCN1CCC(O)(c2ccc(Cl)cc2)CC1)c1ccc(F)cc1 [(+)-1]	blocked	inhibited	–	–	1150	reduced	–	did not alter	did not alter	completely prevented	did not induce significant changes	1.60 ± 0.005	26.04 ± 0.12	significantly and completely blocked	–	–
CCCC(CCC)C(=O)OC(CCCN1CCC(O)(c2ccc(Cl)cc2)CC1)c1ccc(F)cc1 (racemic) [(±)-1]	blocked	inhibited	–	–	4220	significantly, but partially, opposed	–	–	partially counteracted	completely prevented	did not induce significant changes	2.96 ± 0.01	14 ± 0.18	significantly, but partially, opposed	partially and equally blocked	partially and equally blocked
